# Where two headings read alike, the source gives them in different places.
# Legend:
# [1] = system: Lactobacillus plantarum; experiment: Minimal Inhibitory Concentration (MIC), two-fold dilution series in 96 well microplate, antimicrobial used alone; format: cell-based; conditions: for MIC: Lactiplantibacillus plantarum; for Propionic Acid MIC (QB) used alone: sodium propionate per text
# Text: While there are various methods known to individuals skilled in the art for measuring levels of antimicrobial activity, in the following examples the endpoint used is known as the Minimal Inhibitory Concentration, or MIC. This is the lowest concentration of a substance or substances which can achieve complete inhibition of growth.
# In order to determine the Minimal Inhibitory Concentration, a two-fold dilution series of the antimicrobial is constructed with the dilutions being made in growth media. The dilutions are made in a 96 well microplate such that each well has a final volume of 280 μl of media and antimicrobial. The first well has, for example, a concentration of 1000 μM antimicrobial, the second 500 μM, the third 250 μM, and so forth, with the 12th and final well in the row having no antimicrobial at all and serving as a positive growth control. After the dilution series is constructed the wells receive an inoculum of microbe suspended in growth media such that the final concentration of microbes in the well is ˜5×10^5 cfu/ml. In these examples the test microbe used is Lactobacillus plantarum. The cultures are incubated at 37° C. for 18-24 hours, and the wells scored as positive or negative for growth based on a visual examination for turbid wells, with turbidity being an indicator of growth.
# [2] = system: Weisella confusa; conditions: background statement; cited from earlier work
# [3] = system: fermentation; conditions: background statement; cited from earlier work
compound,measurement,setting,value
"O=C(O)CC(O)(CC(=O)O)C(=O)O [Citric Acid, citric acid]",MIC,"[1]; pH 5, Example 2, read-out: Citric Acid MIC (QA) used alone",25 mg/mL
same,MIC,"[1]; pH 5, Example 4, read-out: Citric acid MIC (QA) used alone",25 mg/mL
same,MIC,"[1]; pH 6, Example 1, 37° C., 18-24 hours, read-out: Citric Acid MIC (QA) used alone",100 mg/mL
same,Citric Acid MIC (QA) used alone,"[1]; pH 5, Example 2",25000 ppm
same,Citric Acid MIC (QA) used alone,"[1]; pH 5, Example 4",25000 ppm
same,Citric Acid MIC (QA) used alone,"[1]; pH 6, Example 1, 37° C., 18-24 hours",100000 ppm
same,Citric Acid MIC (QA) used alone,"[1]; pH 6, Example 3",100000 ppm
same,Citric Acid MIC (QA) used alone,"[1]; pH 6, Example 3, listed as citric acid","100,000 ppm"
"O=C([O-])c1ccccc1.[K+] [Potassium Benzoate, potassium benzoate]",Potassium benzoate MIC (QB) used alone,"[1]; pH 5, Example 4, listed as Potassium benzoate",3125 ppm
same,Potassium benzoate MIC (QB) used alone,"[1]; pH 5, Example 4, listed as potassium benzoate","3,125 ppm"
same,Potassium benzoate MIC (QB) used alone,"[1]; pH 6, Example 3",100000 ppm
same,Potassium benzoate MIC (QB) used alone,"[1]; pH 6, Example 3, listed as potassium benzoate","100,000 ppm"
"CCC(=O)[O-].[Na+] [Sodium Propionate, sodium propionate]",Sodium Propionate MIC (QB) used alone,"[1]; pH 5, Example 2",100000 ppm
same,Sodium Propionate MIC (QB) used alone,"[1]; pH 5, Example 2, listed as sodium propionate","100,000 ppm"
same,Propionic Acid MIC (QB) used alone,"[1]; pH 6, Example 1","100,000 ppm"
same,Propionic Acid MIC (QB) used alone,"[1]; pH 6, Example 1, listed as Propionic Acid",100000 ppm
Virginiamycin,concentration required to inhibit growth of Weisella confusa,[2],over 25 mg/L
same,concentration that will suppress fermentation,[3],over 2 mg/L

# — patent publication US9555018B2, “Synergistic combinations of organic acid useful for controlling microoganisms in industrial processes” (Hercules Incorporated, priority 2013, dated 2017)
